Literature values as cited in US9333159B2, “Topical DNA repair composition” (PHOTOMEDEX, INC., priority 2011, dated 2016).

Settings: known super antioxidants; USDA database value prevails where different

In the case of C[N+](C)(C)[C@@H](Cc1c[nH]c(=S)[nH]1)C(=O)[O-] [ergothioneine], the ORAC score is given as 61,000.
